The values below come from patent US11925622B2, “Role of novel carbazole linked 1, 2, 3- triazole analogs in alleviating methylglyoxal-mediated late diabetic vascular complications” (priority 2021, dated 2024).

One may read the IC50 as the concentration needed to halve the response being measured. In general, inhibition refers to the change of the read-out against control, counted positive when it falls.

SMILES strings stand for the structures. Counter-ions that a name gives are not always drawn.

Experiment [1] has as its system MGO-AGEs-induced ROS in THP-1 monocytes. Nature of the experiment: Anti-oxidation activity, DCFH-DA assay of MGO-AGEs-mediated ROS in monocytes. It counts as cell-based, human. Conditions: for ROS (DCF fluorescence) in MGO-AGEs-treated monocytes: 100 μM (maximum inhibition), MGO-AGEs 50 μg/mL, 24 h. The method, then: Anti-oxidation activity: The measurement of effect of derivatives on AGEs-mediated ROS was based on the previously reported protocol of Soumyarani and colleagues with slight amendments. Initially, 1×10^6 monocytes/mL were loaded in sterile 96-well flat bottom black fluorescent plate, and pre-incubated with DCFH-DA (10 μM; Sigma-Aldrich Chemical Corporation, St. Louis, Missouri, USA) for 45 min at 37° C. Followed by the incubation, antiglycating, non-toxic carbazole-linked triazole derivatives (10, 30, 50, and 100 μM) were added to the wells for 1 h before co-treatment of cells with MGO-AGEs (50 μg/mL) for next 24 h. Next, the fluorometric measurement of converted DCFH into oxidized DCF product was carried out via spectrofluorimeter (Varioskanmicroplate reader, Thermo Fisher Scientific, USA) using 485 nm excitation and 520 nm emission wavelengths. Various controls were plated in each experiment. Wells containing culture RPMI with MGO-AGEs (50 μg/mL) and H2O2 ([…]) served as positive controls, while cells containing BSA were taken as negative control.

For experiment [2], the system named is MGO-mediated BSA glycation. In words: In vitro antiglycation activity, MGO-BSA glycation assay (fluorescence). Format: biochemical, bovine. As to conditions: for IC50 / % inhibition of MGO-BSA glycation: BSA 10 mg/mL, MGO 0.1 M, 24 h, 37° C.; for IC50: read-out: IC50 antiglycation, MGO-BSA model; for % inhibition of MGO-BSA glycation: compounds at 1 mM. The method, then: In vitro antiglycation activity: The MGO-BSA assay was performed as per optimized protocol of Jahan, H. et al with slight modifications. Initially, the antiglycation activity of parent compound carbazole (1), and carbazole-linked 1,2,3 triazoles 2-16 were identified at 1 mM using MGO-BSA model. […] BSA (10 mg/mL) incubated with MGO (0.1 M) for 24 h at 37° C. using phosphate-azide buffer (0.1 mM), served as a positive control. The wells with BSA only were taken as negative control. Whereas, rutin and quercetin were used as standard antiglycation agents. After 24 h of incubation, the fluorescence of each well was measured by using microplate reader (Varioskan lux, Thermo Fisher Scientific, 319 Scientific, USA) at 355 nm excitation, and 460 nm emission.
The % inhibition of MGO-BSA-mediated by carbazole-triazole derivatives was quantified by using the following formula: […]
The IC50 of active antiglycation compounds were identified by using EZ-FIT Enzyme Kinetics Program (Perrella Scientific Inc., Amherst, USA).

The test system of experiment [3] is THP-1 cell line. In words: Cytotoxicity, WST-1 assay in human monocytes. Format: cell-based. Conditions: 24 h. The protocol:
(§1) Cytotoxicity analysis: The cytotoxic profile of the compounds was determined by using the MTT assay in hepatocytes (HepG2 cell line), and WST-1 assay in human monocytes (THP-1 cell line) as per the manufacturer's protocols. […] Doxorubicin treated cells were used as a positive control, while cells with culture medium served as negative control. Wells with culture medium served as a blank. Followed by the incubation, 20 μL of MTT were added in each well. […] The absorbance was measured by using 540, and 450 nm, respectively ([…] reader, Thermo Fisher, 319 Scientific, USA).
In general terms: Formazan colour is commonly taken as a measure of viable cells.

Experiment [4] concerns HepG2 cell line. Nature of the experiment: Cytotoxicity, MTT assay in hepatocytes. Format: cell-based, human. As to conditions: 24 h. The protocol: as §1

`O=C(Cn1cc(Cn2c3ccccc3c3ccccc32)nn1)c1ccccc1` [Compound 2, 2-(4-((9H-Carbazole-9-yl)methyl)-1H-1,2,3-triazole-1-y1)-1-phenylethan-1-one]: the “antioxidant activity / ROS production inhibition (in words)” value in experiment [1] (MGO-AGEs 50 μg/mL-treated THP-1 monocytes) was “inactive”. In experiment [2], the “antiglycation activity in MGO-BSA model (in words)” value (“antiglycation activity” for short) is given as “weak potential”, the IC50 is 797 ± 7 µM and the “% inhibition of MGO-BSA glycation” value amounted to 58%.

For `Cc1ccccc1C(=O)Cn1cc(Cn2c3ccccc3c3ccccc32)nn1` [Compound 7, 2-(4-((9H-Carbazole-9-yl)methyl)-1H-1,2,3-triazole-1-y1)-1-(o-tolyl)ethan-1-one], the “% Inhibition ± SD THP-1” value was 21 ± 8.8% in experiment [3] (1 μM); 27 ± 4.2% in experiment [3] (10 μM); 34.6 ± 6.5% in experiment [3] (30 μM); 32.1 ± 0.4% in experiment [3] (50 μM); 50.7 ± 5.3% in experiment [3] (100 μM); 80.8 ± 5.1% in experiment [3] (250 μM). Further, the “% Inhibition ± SD THP-1” value in experiment [3] (500 μM) was 79.5 ± 5.8%. Moreover, the “% Inhibition ± SD Hep-G2” value in experiment [4] (1 μM) was 12.3 ± 3.7%; in experiment [4] (10 μM) it was 21.8 ± 4.7%; in experiment [4] (30 μM), 21.8 ± 1.5%; in experiment [4] (50 μM), 41.1 ± 3.5%; in experiment [4] (100 μM), 50.3 ± 3.9%; in experiment [4] (250 μM) it was 59.8 ± 15.5%. Moreover, in experiment [4] (500 μM), the “% Inhibition ± SD Hep-G2” value worked out at 78.4 ± 2.2%. Also, the “antiglycation activity” value in experiment [2] was “good activity”. Moreover, the IC50 in experiment [2] is 275 ± 5 µM. Besides, in experiment [2], the “% inhibition of MGO-BSA glycation” value is 72%.

On to `Cc1cccc(C(=O)Cn2cc(Cn3c4ccccc4c4ccccc43)nn2)c1` [Compound 8, 2-(4-((9H-Carbazole-9-yl)methyl)-1H-1,2,3-triazole-1-y1)-1-(m-tolyl)ethan-1-one], for which the “% Inhibition ± SD THP-1” value in experiment [3] (1 μM) is on record as 35.5 ± 1.1%; in experiment [3] (10 μM) it was 42.1 ± 0.4%; in experiment [3] (30 μM) it was 43 ± 4.3%; in experiment [3] (50 μM), 43.9 ± 0.7%; in experiment [3] (100 μM), 46.7 ± 2.0%; in experiment [3] (250 μM), 73.6 ± 1.9%. Besides, the “% Inhibition ± SD THP-1” value in experiment [3] (500 μM) is reported as 99.5 ± 0.3%. Further, the “% Inhibition ± SD Hep-G2” value in experiment [4] (1 μM) is reported as 6.4 ± 2.2%; in experiment [4] (10 μM), 8.7 ± 4.8%; in experiment [4] (30 μM), 47.3 ± 2.2%; in experiment [4] (50 μM) it was 54.5 ± 0.7%; in experiment [4] (100 μM), 66.9 ± 1.9%; in experiment [4] (250 μM), 74.1 ± 1.9%. In addition, the “% Inhibition ± SD Hep-G2” value in experiment [4] (500 μM) is 86.7 ± 5.8%. Also, in experiment [2], the “antiglycation activity” value is “good activity”. Further, the IC50 in experiment [2] came out at 130 ± 10 µM. In experiment [2], the “% inhibition of MGO-BSA glycation” value turned out to be 79%.

In the case of `O=C(Cn1cc(Cn2c3ccccc3c3ccccc32)nn1)c1cccc([N+](=O)[O-])c1` [Compound 11, 2-(4-((9H-Carbazole-9-yl)methyl)-1H-1,2,3-triazole-1-y1)-1-(3-nitrophenyl)ethan-1-one], the “ROS (DCF fluorescence) in MGO-AGEs-treated monocytes” value in experiment [1] came to 9.06 RFU. Moreover, in experiment [2], the “antiglycation activity” value is recorded as “good activity”, the 50% inhibitory concentration (IC50) was 147 ± 10 µM and the “% inhibition of MGO-BSA glycation” value is given as 75.7%.

For `c1ccc2c(c1)c1ccccc1n2Cc1cn(Cc2ccc(Cn3cc(Cn4c5ccccc5c5ccccc54)nn3)cc2)nn1` [Compound 15, 1,4-Bis ((4-((9H-carbazol-9-yl)methyl)-1H-1,2,3-triazol-1yl)methyl) benzene], the “ROS (DCF fluorescence) in MGO-AGEs-treated monocytes” value in experiment [1] is listed as 10.6 RFU. In experiment [2], the “antiglycation activity” value is reported as “good activity”, the half-inhibitory concentration (IC50) amounted to 333 ± 10 µM and the “% inhibition of MGO-BSA glycation” value is on record as 71%.

Consider `COc1cccc2c1C(=O)c1c(O)c3c(c(O)c1C2=O)C[C@@](O)(C(=O)CO)C[C@@H]3OC1C[C@H](N)[C@H](O)[C@H](C)O1` (stereo partly drawn) [Doxorubicin, (7S,9S)-7-[(4S,5S,6S)-4-amino-5-hydroxy-6-methyloxan-2-yl]oxy-6,9,11-trihydroxy-9-(2-hydroxyacetyl)-4-methoxy-8,10-dihydro-7H-tetracene-5,12-dione; hydrochlorid, reference compound], for which the inhibition at 1 µM in experiment [3] (Homo sapiens, THP-1, 1 μM, read-out: % Inhibition ± SD THP-1) came to 34.2%; in experiment [4] (Homo sapiens, HepG2, 1 μM, read-out: % Inhibition ± SD Hep-G2), 30.4 ± 5.3%. In addition, the inhibition at 10 µM in experiment [3] (Homo sapiens, THP-1, 10 μM, read-out: % Inhibition ± SD THP-1) came out at 60.2 ± 0.6%; in experiment [4] (Homo sapiens, HepG2, 10 μM, read-out: % Inhibition ± SD Hep-G2) it was 28.3 ± 4.8%. Moreover, the inhibition at 30 µM was found to be 63.2 ± 0.4% in experiment [3] (Homo sapiens, THP-1, 30 μM, read-out: % Inhibition ± SD THP-1) and 64 ± 0.4% in experiment [4] (Homo sapiens, HepG2, 30 μM, read-out: % Inhibition ± SD Hep-G2). Besides, the inhibition at 50 µM in experiment [3] (Homo sapiens, THP-1, 50 μM, read-out: % Inhibition ± SD THP-1) stood at 64.5 ± 2.4%; in experiment [4] (Homo sapiens, HepG2, 50 μM, read-out: % Inhibition ± SD Hep-G2), 58 ± 2.4%. Also, the inhibition at 100 µM worked out at 67.3 ± 0.2% in experiment [3] (Homo sapiens, THP-1, 100 μM, read-out: % Inhibition ± SD THP-1) and 62.6 ± 0.2% in experiment [4] (Homo sapiens, HepG2, 100 μM, read-out: % Inhibition ± SD Hep-G2). Further, the inhibition at 250 µM in experiment [3] (Homo sapiens, THP-1, 250 μM, read-out: % Inhibition ± SD THP-1) was 76.4 ± 10%; in experiment [4] (Homo sapiens, HepG2, 250 μM, read-out: % Inhibition ± SD Hep-G2) it was 69.8 ± 10%. In addition, the inhibition at 500 µM turned out to be 94.3 ± 2.3% in experiment [3] (Homo sapiens, THP-1, 500 μM, read-out: % Inhibition ± SD THP-1) and 87.1 ± 2.2% in experiment [4] (Homo sapiens, HepG2, 500 μM, read-out: % Inhibition ± SD Hep-G2).

In the case of `c1ccc2c(c1)[nH]c1ccccc12` [carbazole], the “% inhibition of MGO-BSA glycation” value in experiment [2] stood at 36.7%.
